Data on 24 molecules can be found in patent US20050234046A1 (Kalypsys, Inc., priority 2004, published 2005).

Holding throughout (assay): Transient transfection (transactivation) assay in CV-1 cells, GAL4-PPAR chimera, luciferase reporter
Common to all, as to type: cell-based

One test concerns the target T1, PPAR alpha (Homo sapiens, UniProt Q07869).
T1 construct: expressed in transfected cells; host or cells: CV-1 cells
T1 sequence (Q07869 239-466 limits assumed): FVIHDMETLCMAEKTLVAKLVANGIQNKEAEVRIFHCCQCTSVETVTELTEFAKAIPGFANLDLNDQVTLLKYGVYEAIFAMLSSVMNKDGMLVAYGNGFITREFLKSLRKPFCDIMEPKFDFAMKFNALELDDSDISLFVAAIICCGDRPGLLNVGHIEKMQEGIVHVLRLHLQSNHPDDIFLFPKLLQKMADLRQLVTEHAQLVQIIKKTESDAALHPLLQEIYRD
The gist of the method: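 GAL4 DNA-binding domain fused to PPAR ligand binding domain, co-transfected into CV-1 cells with a luciferase reporter carrying four or five GAL4 sites. Replated cells in phenol-red free DME with 5% delipidated calf serum were treated with compound or 1% DMSO for 20-24 hours; luciferase read for EC50 and efficacy.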

The next test deals with T2, PPAR delta (Homo sapiens, UniProt Q03181).
T2 construct: expressed in transfected cells; host or cells: CV-1 cells
T2 sequence (Q03181 211-439 limits assumed): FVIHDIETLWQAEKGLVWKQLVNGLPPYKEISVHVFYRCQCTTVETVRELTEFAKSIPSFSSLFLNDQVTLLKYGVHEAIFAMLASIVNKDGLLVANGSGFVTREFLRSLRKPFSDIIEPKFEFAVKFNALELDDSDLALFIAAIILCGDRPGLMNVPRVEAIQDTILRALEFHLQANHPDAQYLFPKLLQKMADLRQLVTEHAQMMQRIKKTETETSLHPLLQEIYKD

In the next test the target is T3, PPAR gamma (Homo sapiens, UniProt P37231).
T3 construct: expressed in transfected cells; host or cells: CV-1 cells
T3 sequence (P37231 238-503 limits assumed): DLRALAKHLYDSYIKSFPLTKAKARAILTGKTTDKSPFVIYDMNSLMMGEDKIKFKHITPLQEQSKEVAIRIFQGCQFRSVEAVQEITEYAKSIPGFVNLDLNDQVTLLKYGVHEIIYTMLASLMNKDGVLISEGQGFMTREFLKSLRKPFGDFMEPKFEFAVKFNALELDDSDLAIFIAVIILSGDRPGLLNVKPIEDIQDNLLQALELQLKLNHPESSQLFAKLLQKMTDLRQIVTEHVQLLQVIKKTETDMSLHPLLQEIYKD

Text for PPAR delta: (§1) Compounds may be screened for functional potency in transient transfection assays in CV-1 cells or other cell types for their ability to activate the PPAR subtypes (transactivation assay). A previously established chimeric receptor system was utilized to allow comparison of the relative transcriptional activity of the receptor subtypes on the same synthetic response element and to prevent endogenous receptor activation from complicating the interpretation of results. […] The ligand binding domains for murine and human PPAR-alpha, PPAR-gamma, and PPAR-delta are each fused to the yeast transcription factor GAL4 DNA binding domain. CV-1 cells were transiently transfected with expression vectors for the respective PPAR chimera along with a reporter construct containing four or five copies of the GAL4 DNA binding site driving expression of luciferase. After 8-16 h, the cells are replated into multi-well assay plates and the media is exchanged to phenol-red free DME medium supplemented with 5% delipidated calf serum. 4 hours after replating, cells were treated with either compounds or 1% DMSO for 20-24 hours. Luciferase activity was then assayed with Britelite (Perkin Elmer) following the manufacturer's protocol and measured with either the Perkin Elmer Viewlux or Molecular Devices Acquest Xsee, for example, Kliewer, S. A., et. al. Cell 1995, 83, 813-819). Rosiglitazone is used as a positive control in the hPPAR-γ assay. Wy-14643 and GW7647 is used as a positive control in the hPPAR-α assay. GW501516 is used as the positive control in the hPPAR-δ assay.
Text for PPAR gamma: as §1

On to `O=C(O)Cc1cc(S(=O)(=O)N2CCN(c3ccc(C(F)(F)F)cn3)CC2)ccc1O` [Example 207, {5-[4-(5-trifluoromethyl-pyridin-2-yl)-piperazine-1-sulfonyl]-2-hydroxy-phenyl}-acetic acid], for which the EC50 at PPAR alpha was 5 to 100 µM; on PPAR delta it was under 5 µM; at PPAR gamma, 5 to 100 µM.
Take `O=C(O)Cc1cc(S(=O)(=O)N2CCN(c3ccc(C(F)(F)F)cc3)CC2)ccc1O` [Example 208, {5-[4-(4-trifluoromethyl-phenyl)-piperazine-1-sulfonyl]-2-hydroxy-phenyl}-acetic acid]: the EC50 on PPAR alpha was 5 to 100 µM; at PPAR delta, under 5 µM; at PPAR gamma it was over 100 µM.
As for `C[C@@H]1CN(c2ccc(OC(F)(F)F)cc2)C[C@H](C)N1S(=O)(=O)c1ccc(O)c(CC(=O)O)c1` [Example 209, {5-[2,6-Dimethyl-4-(4-trifluoromethoxy-phenyl)-piperazine-1-sulfonyl]-2-hydroxy-phenyl}-acetic acid], the results for the EC50 on PPAR alpha, at PPAR delta and at PPAR gamma were over 100 µM, 5 to 100 µM and over 100 µM, respectively.
With `O=C(O)CSCc1cccc(S(=O)(=O)N2CCN(c3ccc(C(F)(F)F)cc3)CC2)c1` [Example 210, {3-[4-(4-Trifluoromethyl-phenyl)-piperazine-1-sulfonyl]-benzylsulfanyl}-acetic acid], the EC50 on PPAR alpha, on PPAR delta and on PPAR gamma was 5 to 100 µM in each case.
As for `O=C(O)COCc1cccc(S(=O)(=O)N2CCN(c3ccc(C(F)(F)F)cc3)CC2)c1` [Example 211, {3-[4-(4-Trifluoromethyl-phenyl)-piperazine-1-sulfonyl]-benzyloxy}-acetic acid], the EC50 at PPAR alpha, at PPAR delta and at PPAR gamma was over 100 µM in each case.
In the case of `CC(C)(OCc1cccc(S(=O)(=O)N2CCN(c3ccc(C(F)(F)F)cc3)CC2)c1)C(=O)O` [Example 212, 2-Methyl-2-{3-[4-(4-trifluoromethyl-phenyl)-piperazine-1-sulfonyl]-benzyloxy}-propionic acid], the values for the EC50 at PPAR alpha, on PPAR delta and on PPAR gamma were 5 to 100 µM, over 100 µM and 5 to 100 µM, respectively.
In the case of `Cc1cc(CC(=O)O)cc(S(=O)(=O)N2CCN(c3ccc(OC(F)(F)F)cc3)C[C@@H]2C)c1` [Example 213, {3-Methyl-5-[2-(S)-methyl-4-(4-trifluoromethoxy-phenyl)-piperazine-1-sulfonyl]phenyl}-acetic acid], the results for the EC50 on PPAR alpha, on PPAR delta and at PPAR gamma were 5 to 100 µM, under 5 µM and 5 to 100 µM, respectively.
For the molecule `Cc1ccc(S(=O)(=O)N2CCN(c3ccc(OC(F)(F)F)cc3)C[C@@H]2C)cc1CC(=O)O` [Example 214, {2-Methyl-5-[2-(S)-methyl-4-(4-trifluoromethoxy-phenyl)-piperazine-1-sulfonyl]-phenyl}-acetic acid], the figures for the 50% effective concentration (EC50) at PPAR alpha, on PPAR delta and at PPAR gamma were 5 to 100 µM, under 5 µM and 5 to 100 µM, respectively.
As for `C[C@H]1CN(c2ccc(C(F)(F)F)c(F)c2)CCN1S(=O)(=O)c1cccc(CC(=O)O)c1` [Example 215, {3-[4-(3-Fluoro-4-trifluoromethyl-phenyl)-2-(S)-methyl-piperazine-1-sulfonyl]-phenyl}-acetic acid], the EC50 on PPAR alpha is 5 to 100 µM; on PPAR delta, under 5 µM; at PPAR gamma, 5 to 100 µM.
Take `Cc1cc(CC(=O)O)cc(S(=O)(=O)N2CCN(c3ccc(C(F)(F)F)c(F)c3)C[C@@H]2C)c1` [Example 216, {3-[4-(3-Fluoro-4-trifluoromethyl-phenyl)-2-(S)-methyl-piperazine-1-sulfonyl]-5-methyl-phenyl}-acetic acid]: the EC50 at PPAR alpha is 5 to 100 µM; at PPAR delta it was under 5 µM; at PPAR gamma, 5 to 100 µM.
For the molecule `Cc1ccc(S(=O)(=O)N2CCN(c3ccc(C(F)(F)F)c(F)c3)C[C@@H]2C)cc1CC(=O)O` [Example 217, {5-[4-(3-Fluoro-4-trifluoromethyl-phenyl)-2-(S)-methyl-piperazine-1-sulfonyl]-2-methyl-phenyl}-acetic acid], the EC50 at PPAR alpha was 5 to 100 µM; at PPAR delta, under 5 µM; on PPAR gamma, 5 to 100 µM.
Consider `C[C@H]1CN(S(=O)(=O)c2cccc(CC(=O)O)c2)CCN1c1ccc(C(F)(F)F)c(F)c1` [Example 218, {3-[4-(3-Fluoro-4-trifluorometbyl-phenyl)-3-(S)-methyl-piperazine-1-sulfonyl]-phenyl}-acetic acid], for which the figures for the EC50 on PPAR alpha, on PPAR delta and at PPAR gamma were under 5 µM, under 5 µM and 5 to 100 µM, respectively.
Take `Cc1cc(CC(=O)O)cc(S(=O)(=O)N2CCN(c3ccc(C(F)(F)F)c(F)c3)[C@@H](C)C2)c1` [Example 219]: the figures for the EC50 at PPAR alpha, on PPAR delta and on PPAR gamma were 5 to 100 µM, under 5 µM and 5 to 100 µM, respectively.
For `C[C@@H]1CN(c2ccc(C(F)(F)F)cn2)C[C@H](C)N1S(=O)(=O)c1cccc(CC(=O)O)c1` [Example 220, {3-[2,6-Dimethyl-4-(5-trifluoromethyl-pyridin-2-yl)-piperazine-1-sulfonyl]-phenyl}-acetic acid], the figures for the EC50 at PPAR alpha, at PPAR delta and at PPAR gamma were 5 to 100 µM, under 5 µM and over 100 µM, respectively.
For `C[C@H]1CN(S(=O)(=O)c2cccc(CC(=O)O)c2)CCN1c1ccc(OC(F)(F)F)cc1` [Example 221, {3-[3-(s)-Methyl-4-(4-trifluoromethoxy-phenyl)-piperazine-1-sulfonyl]-phenyl}-acetic acid] the same measures were 5 to 100 µM, under 5 µM and 5 to 100 µM.
For `Cc1cc(CC(=O)O)cc(S(=O)(=O)N2[C@H](C)CN(c3ccc(C(F)(F)F)c(F)c3)C[C@@H]2C)c1` [Example 222], the EC50 on PPAR alpha is 5 to 100 µM; on PPAR delta, under 5 µM; at PPAR gamma, over 100 µM.
The like results for `Cc1cc(CC(=O)O)cc(S(=O)(=O)N2CCN(c3ccc(OC(F)(F)F)cc3)CC2)c1` [Example 223, {3-Methyl-5-[4-(4-trifluoromethoxy-phenyl)-piperazine-1-sulfonyl]-phenyl}-acetic acid] were, in that order, 5 to 100 µM, under 5 µM and 5 to 100 µM.
Take `Cc1cc(CC(=O)O)cc(S(=O)(=O)N2CCN(c3ccc(OC(F)(F)F)cc3)[C@@H](C)C2)c1` [Example 224, {3-Methyl-5-[3-(s)-methyl-4-(4-trifluoromethoxy-phenyl)-piperazine-1-sulfonyl]-phenyl}-acetic acid]: the EC50 at PPAR alpha was 5 to 100 µM; at PPAR delta, under 5 µM; at PPAR gamma it was 5 to 100 µM.
With `Cc1cc(CC(=O)O)cc(S(=O)(=O)N2CCN(c3ccc(C(F)(F)F)cn3)CC2)c1` [Example 225], the EC50 on PPAR alpha is 5 to 100 µM; at PPAR delta it was under 5 µM; at PPAR gamma, under 5 µM.
Consider `C[C@H]1CN(c2ccc(OC(F)(F)F)cc2)CCN1S(=O)(=O)c1cccc(CC(=O)O)c1` [Example 226, {3-[2-(s)-Methyl-4-(4-trifluoromethoxy-phenyl)-piperazine-1-sulfonyl]-phenyl}-acetic acid], for which the EC50 was 5 to 100 µM at PPAR alpha, under 5 µM on PPAR delta and 5 to 100 µM at PPAR gamma.
Regarding `C[C@@H]1CN(S(=O)(=O)c2cccc(CC(=O)O)c2)C[C@H](C)N1c1ccc(C(F)(F)F)cn1` [Example 227, 2-(3-(-3,5-Dimethyl-4-(5-(trifluoromethyl)pyridine-2-yl)piperazin-1-ylsulfonyl)phenyl)acetic acid], the results for the EC50 on PPAR alpha, on PPAR delta and at PPAR gamma were 5 to 100 µM, under 5 µM and under 5 µM, respectively.
In the case of `Cc1cc(CC(=O)O)cc(S(=O)(=O)N2C[C@@H](C)N(c3ccc(C(F)(F)F)cn3)[C@@H](C)C2)c1` [Example 228, 2-(3-(-3,5-Dimethyl-4-(5-(trifluoromethyl)pyridine-2-yl)piperazin-1-ylsulfonyl)-5-methylphenyl)acetic acid], the EC50 at PPAR alpha is 5 to 100 µM; at PPAR delta, under 5 µM; on PPAR gamma it was under 5 µM.
As to `Cc1cc(CC(=O)O)cc(S(=O)(=O)N2[C@H](C)CN(c3ccc(C(F)(F)F)cn3)C[C@@H]2C)c1` [Example 229, {3-[2,6-Dimethyl-4-(5-trifluoromethyl-pyridin-2-yl)-piperazine-1-sulfonyl]-5-methyl-phenyl}-acetic acid], the EC50 is over 100 µM at PPAR alpha, under 5 µM on PPAR delta and over 100 µM at PPAR gamma.
`O=C(O)Cc1c(F)ccc(S(=O)(=O)N2CCN(c3ccc(C(F)(F)F)cn3)CC2)c1F` [Example 230, {2,6-Difluoro-3-[4-(5-trifluoromethyl-pyridin-2-yl)-piperazine-1-sulfonyl]-phenyl}-acetic acid]: the EC50 at PPAR alpha was 5 to 100 µM; at PPAR delta, under 5 µM; at PPAR gamma, 5 to 100 µM.
